Measured values reported in patent US20240201204A1, “Biomarker and Druggable Target of Neurodegeneration” (University Hospitals Cleveland Medical Center, priority 2020, published 2024).
Like-named read-outs stand apart in the source and are kept apart here.

Assays:
[1] = system: Alzheimer's disease; assay: Pharmacoepidemiologic cohort analysis (MarketScan Medicare Supplemental database), incidence of AD; assay type: in vivo, human
Source text: (§1) Because ac-tau has been generally reported in the brains of subjects with AD, we evaluated the relationship between salsalate or diflunisal use and incidence of clinically-diagnosed TBI or AD by analyzing 7.23 million U.S. commercially-insured individuals (MarketScan Medicare Supplemental database). We conducted two cohort analyses to evaluate the predicted association, based on individual level of longitudinal patient data and pharmacoepidemiologic methods, as previously established (Cheng et al., 2018). Thus, our two cohorts included: (1) salsalate vs. a matched aspirin population and (2) diflunisal vs. a matched aspirin population (Table 2). For each comparison, we estimated the un-stratified Kaplan-Meier curves and conducted propensity score (PS) stratified (n strata=10) log-rank tests and a Cox regression model after adjusting age, race, sex, and disease comorbidities (including diabetes, hypertension, and coronary artery disease) using a propensity score-matching method (Methods).
Study cohorts. The IBM® MarketScan® Medicare Supplemental Database is one of the first in the U.S. to profile the healthcare experience of retirees with Medicare supplemental insurance paid by employers. The MarketScan Medicare Supplemental Database provides detailed cost, use and outcomes data for healthcare services performed in both inpatient and outpatient settings. For most of the population, the medical claims are linked to outpatient prescription drug claims and person-level enrollment data through the use of unique patient or enrollee identifiers. […] This feature makes the database a robust tool for pharmacoeconomic and outcomes research and helps provide insight into the drug use and spending patterns of older Americans. In this study, the pharmacoepidemiology study utilized the MarketScan Medicare Claims database from 2012 to 2017. The dataset included individual-level diagnosis codes, procedure codes and pharmacy claim data for 7.23 million patients. Pharmacy prescriptions of salsalate, diflunisal, and aspirin were identified by using RxNorm and National Drug Code (NDC).
Outcome measurement. For a subject, a drug episode is defined as from drug initiation to drug discontinuation. Specifically, drug initiation is defined as the first day of drug supply (i.e. 1st prescription date). Drug discontinuation is defined as the last day of drug supply (i.e. last prescription date+days of supply) and without drug supply for the next 60 days. In another word, gaps of less than 60-day of drug supply were allowed within a drug episode. The drug cohort included the first drug episode for each subject. For the final cohorts, demographic variables including age, race, sex and geographical location were collected. […]

[2] = Diflunisal stability in plasma and brain homogenate; assay type: in vitro ADME; conditions: mouse plasma and brain homogenate, 37° C., 5% CO2, over 6 hours
Protocol: (§2) Diflunisal protein binding: Protein binding of diflunisal in mouse plasma or brain homogenate was determined by rapid equilibrium dialysis using RED chambers (Thermo Scientific, Waltham, MA). On the day of the RED experiment, frozen mouse plasma and 4× homogenized brain was thawed in a water bath at 37° C. Then it was equilibrated for 45 minutes at 37° C. in an atmosphere of 5% CO2. The pH of PBS was confirmed within 7.4±0.1. The pH of plasma and brain was measured and adjusted to 7.4±0.1 using concentrated acid or base. Plasma and brain diluted at 1:20 (final) with PBS and used for all subsequent steps. An aliquot of plasma or brain was spiked with compound to a compound concentration of 5 μM and vortex mixed. […] Donor, dialysate, and plasma or brain stability samples were analyzed by using a matrix matching approach whereby each sample was mixed in a 1:1 ratio with the opposite medium (blank matrix or PBS). […] Diflunisal levels in both chambers were measured by LC-MS/MS in comparison to a standard curve prepared in 1:1 matrix: PBS as described above. For each matrix, stability was assessed by maintaining individual aliquots of compound-spiked matrix at 37° C. and 5% CO2 for 0 and 6 hours. […] Stability of diflunisal in plasma and brain was 99% over 6 hours as assessed by LC-MS/MS. Fraction unbound (fu) was determined based on the following equations: […]

[3] = in vivo
Protocol: Diflunisal was administered PO and animals were euthanized at the indicated times post-dose. After peripheral blood collection, animals were perfused with 1×PBS to remove blood in the brain vasculature. Total plasma and brain levels of diflunisal were evaluated by LC-MS/MS and then converted to free drug levels after measurement of binding in mouse plasma and brain.
Diflunisal pharmacokinetics: Diflunisal levels in mouse plasma and brain were monitored by LC-MS/MS using an AB Sciex (Framingham, MA) 4000 QTRAP® mass spectrometer coupled to a Shimadzu (Columbia, MD) Prominence LC. Diflunisal was detected with the mass spectrometer in negative MRM (multiple reaction monitoring) mode by following the precursor to fragment ion transitions 248.9 to 204.9 (quantifier ion) and 248.9 to 184.9 (qualifier ion). An Agilent C18 XDB column (5 micron, 50×4.6 mm) was used for chromatography for PK studies with the following conditions: Buffer A: dH20+0.1% formic acid, Buffer B: acetonitrile+0.1% formic acid, 0-1.0 min 5% B, 1.0-1.5 min gradient to 100% B, 1.5-3.0 min 100% B, 3.0-3.2 min gradient to 5% B, 3.2-4.5 5% B. Tolbutamide (transition 269.1 to 169.9) from Sigma (St. Louis, MO) was used as an internal standard (IS). Pharmacokinetic studies were performed by injecting 8 week old C57BL/6J male mice with diflunisal formulated in 10% DMSO, 20% Kolliphor EL, 70% saline. 60 or 180 minutes post-dose, animals were anesthetized with ketamine (100 mg/kg) and xylazine (10 mg/kg) via intraperitoneal (IP) injection. Blood was collected using the anticoagulant ACD, and then brains were harvested after transcardial perfusion with 1×PBS. Tissues were weighed before snap freezing and blood spun at 9600×g to collect plasma which was stored frozen along with brain tissue at −80° C. until analysis. […] The concentration of drug in each time-point sample was quantified using Analyst software (Sciex). […] The limit of quantitation (LOQ) was defined as the lowest concentration at which back calculation yielded a concentration within 20% of theoretical.

[4] = 500 mg diflunisal twice daily for 11 days; cited from earlier work
[5] = system: p300/CBP; conditions: literature (Shirakawa et al., 2016); cited from earlier work
[6] = Diflunisal protein binding by rapid equilibrium dialysis; assay type: in vitro ADME, mouse; conditions: diluted 1:20 (final) with PBS, 37° C.
Protocol: as §2

[7] = system: clinically-diagnosed TBI; assay: Pharmacoepidemiologic cohort analysis (MarketScan Medicare Supplemental database), incidence of TBI; assay type: in vivo, human; conditions: vs. PS-matched aspirin cohort, Cox regression model, 6 years of follow-up
Source text: as §1
Study cohorts. The IBM® MarketScan® Medicare Supplemental Database is one of the first in the U.S. to profile the healthcare experience of retirees with Medicare supplemental insurance paid by employers. The MarketScan Medicare Supplemental Database provides detailed cost, use and outcomes data for healthcare services performed in both inpatient and outpatient settings. […]

Q: Which “incidence of AD, subgroup analysis” value ([1]; excluding patients with type 2 diabetes, hypertension, or coronary artery disease, vs. aspirin) does the source give for `O=C(O)c1cc(-c2ccc(F)cc2F)ccc1O` [diflunisal] here?
A: Its value is “associated with decreased incidence of AD”.

Q: And the “hazard ratio [HR], AD” value ([1]; vs. PS-matched aspirin cohort, Cox regression model, 6 years of follow-up)?
A: Its value is 0.17.

Q: And the “stability in plasma and brain” value [2]?
A: Its value is 99%.

Q: What about the “penetration into mouse brain” value [3] of the same compound?
A: The value was “modest penetration of diflunisal into mouse brain”.

Q: What about the “free drug plasma to brain ratio” value ([3]; male, C57BL/6J, mouse) of the same compound?
A: Its value is 55:1.

Q: And the “total diflunisal plasma to brain ratio” value ([3]; male, C57BL/6J, mouse)?
A: Its value is “about 200:1”.

Q: What about the mean peak plasma levels in humans [4] of the same compound?
A: Its mean peak plasma levels in humans is 190 µg/mL.

Q: And the “inhibition of p300/CBP” value [5]?
A: The value was “demonstrated to inhibit p300/CBP”.

Q: And the fraction unbound at 6 h, 5 μM ([6]; pH 7.4, mouse brain homogenate, read-out: fraction unbound in brain tissue (fubrain))?
A: Its fraction unbound at 6 h, 5 μM is 0.05 ± 0.001.

Q: And the fraction unbound at 6 h, 5 μM ([6]; pH 7.4, mouse plasma, read-out: fraction unbound in plasma (fuplasma))?
A: The fraction unbound at 6 h, 5 μM was 0.014 ± 0.002.

Q: What about the “hazard ratio [HR], clinically-diagnosed TBI” value [7] of the same compound?
A: Its value is 0.61.
